The test system of experiment [1] is T1, Isoflavones conjugate hydrolyzing β-glucosidase (ICHG).
T1 construct: native, purified from dried seeds (ammonium sulphate, Sephadex G-75, DEAE-Sepharose); ~50 kDa subunit, ~150 kDa native, probable homotrimer; five internal peptides closest to Cicer arietinum beta-glucosidase
Put plainly: 4-nitrophenol release at […] nm, Lineweaver-Burk plot. The format is biochemical, Cyamopsis tetragonoloba. The conditions noted are these: optimum pH 4.5 and 37 °C; citrate phosphate buffer 0.1 M; PNPG 0.1-5 mM.

Experiment [2] has as its target Isoflavones conjugate hydrolyzing β-glucosidase (ICHG) from Cyamopsis tetragonoloba (guar) (Cyamopsis tetragonoloba (guar)). The experiment is described as follows: SEC; Sephadex G-75 column (1.8 x 50 cm), 0.02 M sodium phosphate buffer pH 6, standard proteins of 66 to 124 kDa; native mass (~150 kDa) compared with the subunit mass on SDS-PAGE (~50 kDa).

For the compound `O=[N+]([O-])c1ccc(O[C@@H]2O[C@H](CO)[C@@H](O)[C@H](O)[C@H]2O)cc1` [para nitrophenyl -β-D- glucopyranoside], the Km in experiment [1] was determined as 860 µM.

“Isoflavones conjugate hydrolyzing β-glucosidase (ICHG) from Cyamopsis tetragonoloba (guar) (enzyme)” displayed a stoichiometry N in experiment [2] of 3.

The record behind these values is publication PMC6700428, “Purification and characterization of an isoflavones conjugate hydrolyzing β-glucosidase (ICHG) from Cyamopsis tetragonoloba (guar)” (Biochemistry and Biophysics Reports, 2019).
